Activity calls are given as the source filed them. The rule behind the calls is not given here.
Legend:
[1] = tested on: HCT-116; assay: Induction of DNA damage in human HCT-116 cells assessed as tail length at 5 uM incubated for 48 hrs by alkaline Comet assay relative to control; format: functional, cell-based
[2] = tested on: SiHa; assay: cells; conditions: Homo sapiens, 48 h
Description: Antiproliferative activity against human SiHa cells assessed as reduction in cell viability incubated for 48 hrs by sulphorhodamine B assay

[3] = tested on: MCF7; assay: cells; conditions: Homo sapiens, MCF7, 48 h
Description: Antiproliferative activity against human MCF7 cells assessed as reduction in cell viability incubated for 48 hrs by sulphorhodamine B assay

[4] = tested on: HCT-116; assay: cells; conditions: Homo sapiens, HCT-116, 48 h
Description: Antiproliferative activity against human HCT-116 cells assessed as reduction in cell viability incubated for 48 hrs by sulphorhodamine B assay

[5] = tested on: HeLa; assay: cells; conditions: Homo sapiens, 48 h
Description: Antiproliferative activity against human HeLa cells assessed as reduction in cell viability incubated for 48 hrs by sulphorhodamine B assay

[6] = tested on: HCT-116; assay: Induction of cell cycle arrest in human HCT-116 cells assessed as accumulation of cells at G1 phase at 5 uM incubated for 3 to 20 hrs in presence of 0.3 uM mitotic inhibitor nocodazole by propidium iodide staining based flow cytometry analysis; format: functional; conditions: time 3-20 hrs
[7] = tested on: Jurkat; assay: cells; conditions: Homo sapiens, 48 h
Description: Antiproliferative activity against human Jurkat cells assessed as reduction in cell viability incubated for 48 hrs by sulphorhodamine B assay

[8] = tested on: MDA-MB-231; assay: cells; conditions: Homo sapiens, MDA-MB-231, 48 h
Description: Antiproliferative activity against human MDA-MB-231 cells assessed as reduction in cell viability incubated for 48 hrs by sulphorhodamine B assay

[9] = tested on: HCT-116; assay: cells; conditions: Homo sapiens, HCT-116, 48 h; remark: listed apart in the source
Description: Antiproliferative activity against human HCT-116 p53-/- cells assessed as reduction in cell viability incubated for 48 hrs by sulphorhodamine B assay

[10] = tested on: U-251; assay: cells; conditions: Homo sapiens, U-251, 48 h
Description: Antiproliferative activity against human U-251 cells assessed as reduction in cell viability incubated for 48 hrs by sulphorhodamine B assay

[11] = tested on: NCI-H460; assay: cells; conditions: Homo sapiens, NCI-H460, 48 h
Description: Antiproliferative activity against human NCI-H460 cells assessed as reduction in cell viability incubated for 48 hrs by sulphorhodamine B assay

[12] = tested on: HCT-116; assay: Induction of cell cycle arrest in human HCT-116 cells assessed as accumulation of cells at G1 phase at 5 uM incubated for 48 hrs by propidium iodide staining based flow cytometry analysis; format: functional
[13] = physchem; conditions: octanol/buffer, pH 7.4
Description: Octanol/buffer distribution coefficient, log D of the compound at pH 7.4

[14] = physchem; conditions: octanol/water
Description: Octanol/water partition coefficient, log P of the compound

[15] = tested on: HCT-116; assay: Induction of cell cycle arrest in human HCT-116 cells assessed as accumulation of cells at G2/M phase at 5 uM incubated for 3 to 20 hrs in presence of 0.3 uM mitotic inhibitor nocodazole by propidium iodide staining based flow cytometry analysis; format: functional; conditions: time 3-20 hrs
[16] = tested on: HeLa; assay: Induction of apoptosis in human HeLa cells assessed as increase in cleaved PARP levels at 10 uM by Western blot analysis; format: functional, cell-based; conditions: time 6-48 hrs, TDE = time-dependent effect
[17] = tested on: NCI-H460; assay: Induction of apoptosis in human NCI-H460 cells assessed as morphological changes at 0.5 uM incubated for 48 hrs by acridine orange/propidium iodide double staining based fluorescence microscopy analysis; format: functional, cell-based
[18] = target: T1, DNA topoisomerase 2-alpha (Homo sapiens, UniProt P11388); assay: Inhibition of recombinant human topoisomerase 2 assessed as decrease in relaxation of supercoiled pBlue-Script KS(+) plasmid DNA incubated for 30 mins by ethidium bromide staining based gel electrophoresis method
T1 sequence (P11388 whole entry): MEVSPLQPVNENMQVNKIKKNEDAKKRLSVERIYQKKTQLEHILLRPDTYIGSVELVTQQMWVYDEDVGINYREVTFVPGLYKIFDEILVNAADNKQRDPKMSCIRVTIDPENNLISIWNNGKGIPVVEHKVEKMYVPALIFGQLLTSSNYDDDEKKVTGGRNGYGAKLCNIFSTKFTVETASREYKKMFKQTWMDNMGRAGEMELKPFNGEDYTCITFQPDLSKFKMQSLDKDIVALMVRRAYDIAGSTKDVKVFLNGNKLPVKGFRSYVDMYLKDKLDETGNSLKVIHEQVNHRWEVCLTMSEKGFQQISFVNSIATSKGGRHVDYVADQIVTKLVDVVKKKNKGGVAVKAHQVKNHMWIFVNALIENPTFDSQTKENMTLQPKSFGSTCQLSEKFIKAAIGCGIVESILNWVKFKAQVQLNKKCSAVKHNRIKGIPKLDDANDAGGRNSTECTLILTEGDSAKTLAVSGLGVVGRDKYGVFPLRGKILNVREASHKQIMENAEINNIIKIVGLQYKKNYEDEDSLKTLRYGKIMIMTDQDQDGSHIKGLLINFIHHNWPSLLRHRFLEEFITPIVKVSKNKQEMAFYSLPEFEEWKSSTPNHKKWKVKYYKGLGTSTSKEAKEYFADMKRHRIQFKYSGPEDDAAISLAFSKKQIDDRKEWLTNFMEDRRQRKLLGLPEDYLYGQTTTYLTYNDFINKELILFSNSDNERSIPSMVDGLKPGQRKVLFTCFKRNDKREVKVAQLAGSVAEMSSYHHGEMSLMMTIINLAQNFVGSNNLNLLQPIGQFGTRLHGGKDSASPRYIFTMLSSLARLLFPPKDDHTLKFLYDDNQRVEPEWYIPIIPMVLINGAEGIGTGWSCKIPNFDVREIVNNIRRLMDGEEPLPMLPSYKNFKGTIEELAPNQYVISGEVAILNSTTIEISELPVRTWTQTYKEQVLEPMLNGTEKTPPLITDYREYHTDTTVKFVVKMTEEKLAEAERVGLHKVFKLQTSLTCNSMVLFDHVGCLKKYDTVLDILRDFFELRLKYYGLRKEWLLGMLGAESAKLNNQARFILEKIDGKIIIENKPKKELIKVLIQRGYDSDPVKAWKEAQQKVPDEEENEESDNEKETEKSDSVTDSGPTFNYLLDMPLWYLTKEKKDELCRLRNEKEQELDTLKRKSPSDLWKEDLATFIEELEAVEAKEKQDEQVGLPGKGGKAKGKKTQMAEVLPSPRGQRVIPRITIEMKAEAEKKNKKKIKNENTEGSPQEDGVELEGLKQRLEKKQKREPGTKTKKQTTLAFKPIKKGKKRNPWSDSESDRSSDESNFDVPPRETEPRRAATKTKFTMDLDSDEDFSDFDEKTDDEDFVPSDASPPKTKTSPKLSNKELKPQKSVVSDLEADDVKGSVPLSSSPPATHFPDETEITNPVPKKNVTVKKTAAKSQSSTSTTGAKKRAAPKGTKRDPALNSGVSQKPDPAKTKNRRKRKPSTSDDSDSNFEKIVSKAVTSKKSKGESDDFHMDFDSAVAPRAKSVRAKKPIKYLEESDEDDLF

[19] = tested on: HCT-116; assay: Induction of cell cycle arrest in human HCT-116 cells assessed as accumulation of cells at G2/M phase at 5 uM incubated for 48 hrs by propidium iodide staining based flow cytometry analysis; format: functional
[20] = tested on: NCI-H460; assay: Induction of cell death in human NCI-H460 cells at 0.1 uM incubated for 48 hrs by propidium iodide staining based flow cytometry analysis; format: functional
[21] = tested on: Calf thymus DNA; assay: Binding affinity to calf thymus DNA assessed as red shift absorbance measured at 258 nm at 3*10^-5 mol/L by double beam UV-Vis spectroscopic analysis; format: nucleic-acid assay; conditions: Bos taurus
[22] = tested on: Calf thymus DNA; assay: Binding affinity to calf thymus DNA assessed as hyperchromic effect measured at 258 nm at 3*10^-5 mol/L by double beam UV-Vis spectroscopic analysis; format: nucleic-acid assay; conditions: Bos taurus
[23] = tested on: NCI-H460; assay: Induction of DNA damage in human NCI-H460 cells incubated for 48 hrs by alkaline Comet assay; format: functional, cell-based
[24] = tested on: HCT-116; assay: Anticlonogenic activity against human HCT-116 cells assessed as inhibition of colony formation at 0.1 to 5 uM incubated for 48 hrs followed by compound washout with PBS and measured after 14 days by crystal violet staining based analysis; format: functional, cell-based; conditions: dose 0.1-5 µM
[25] = tested on: Calf thymus DNA; assay: Binding affinity to calf thymus DNA assessed as hyperchromic effect measured at 302 nm at 3*10^-5 mol/L by double beam UV-Vis spectroscopic analysis; format: nucleic-acid assay; conditions: Bos taurus
[26] = tested on: HEK293; assay: Antiproliferative activity against human HEK293 cells assessed as reduction in cell viability incubated for 48 hrs by sulphorhodamine B assay; format: functional
[27] = tested on: A549; assay: Antiproliferative activity against human A549 cells assessed as reduction in cell viability incubated for 48 hrs by sulphorhodamine B assay; format: functional
[28] = tested on: NCI-H460; assay: Induction of cell cycle arrest in human NCI-H460 cells assessed as accumulation of cells at G1 phase incubated for 48 hrs by propidium iodide staining based flow cytometry analysis; format: functional; conditions: dose 0.1-2 µM
[29] = tested on: HCT-116; assay: Induction of cell cycle arrest in human HCT-116 cells assessed as accumulation of cells at G2/M phase at 5 uM incubated for 20 hrs by propidium iodide staining based flow cytometry analysis; format: functional
[30] = target: T2, DNA topoisomerase 1 (Homo sapiens) (UniProt P11387); assay: Inhibition of human topoisomerase 1 assessed as induction of negative supercoiled DNA using relaxed pBlue-Script KS(+) plasmid DNA as substrate measured after 15 mins by agarose gel electrophoresis analysis; conditions: dose 60-100 µM
T2 sequence (whole entry): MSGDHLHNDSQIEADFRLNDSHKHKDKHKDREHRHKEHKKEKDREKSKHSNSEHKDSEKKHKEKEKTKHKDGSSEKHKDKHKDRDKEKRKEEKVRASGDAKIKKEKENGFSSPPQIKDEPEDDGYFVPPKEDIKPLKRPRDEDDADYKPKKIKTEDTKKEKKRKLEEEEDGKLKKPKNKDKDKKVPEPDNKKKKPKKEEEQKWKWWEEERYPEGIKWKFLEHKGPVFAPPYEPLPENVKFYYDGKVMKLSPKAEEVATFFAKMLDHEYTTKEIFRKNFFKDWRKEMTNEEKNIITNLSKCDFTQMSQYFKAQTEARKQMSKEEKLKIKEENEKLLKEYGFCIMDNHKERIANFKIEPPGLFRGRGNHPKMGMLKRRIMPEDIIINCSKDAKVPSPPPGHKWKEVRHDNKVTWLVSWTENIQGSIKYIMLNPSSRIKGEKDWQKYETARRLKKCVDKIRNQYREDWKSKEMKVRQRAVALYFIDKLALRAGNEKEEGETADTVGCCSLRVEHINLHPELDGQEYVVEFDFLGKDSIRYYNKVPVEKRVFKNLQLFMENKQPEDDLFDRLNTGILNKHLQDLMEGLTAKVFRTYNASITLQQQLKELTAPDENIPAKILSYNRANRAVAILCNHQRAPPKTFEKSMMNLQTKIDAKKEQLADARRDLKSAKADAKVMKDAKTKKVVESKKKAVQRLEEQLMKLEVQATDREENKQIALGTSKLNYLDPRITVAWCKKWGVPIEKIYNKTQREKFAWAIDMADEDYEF

[31] = tested on: NCI-H460; assay: Induction of apoptosis in human NCI-H460 cells assessed as cleaved PARP levels at 1 uM incubated for 48 hrs by Western blot analysis; format: functional, cell-based
[32] = tested on: Calf thymus DNA; assay: Binding affinity to calf thymus DNA assessed as hypochromic effect at 3*10^-5 mol/L by double beam UV-Vis spectroscopic analysis; format: nucleic-acid assay; conditions: Bos taurus
[33] = tested on: Calf thymus DNA; assay: Binding affinity to calf thymus DNA assessed as bathochromic shift absorbance in absorption maximum at 3*10^-5 mol/L by double beam UV-Vis spectroscopic analysis; format: nucleic-acid assay; conditions: Bos taurus
[34] = tested on: NCI-H460; assay: Induction of apoptosis in human NCI-H460 cells assessed as nuclear fragmentation at 2 uM incubated for 48 hrs by acridine orange/propidium iodide double staining based fluorescence microscopy analysis; format: functional, cell-based
[35] = tested on: HCT-116; assay: Induction of cell cycle arrest in human HCT-116 cells assessed as accumulation of cells at G1/S phase at 2 uM incubated for 48 hrs by propidium iodide staining based flow cytometry analysis; format: functional
[36] = tested on: Calf thymus DNA; assay: Binding affinity to calf thymus DNA assessed as hyperchromic shift measured at 362 nm at 3*10^-5 mol/L by double beam UV-Vis spectroscopic analysis; format: nucleic-acid assay; conditions: Bos taurus
[37] = tested on: HCT-116; assay: Induction of DNA damage in human HCT-116 cells assessed as tail length at 0.5 uM incubated for 48 hrs by alkaline Comet assay relative to control; format: functional, cell-based
[38] = tested on: Calf thymus DNA; assay: Binding affinity to calf thymus DNA assessed as hypsochromic shift absorbance measured at 284 nm at 3*10^-5 mol/L by double beam UV-Vis spectroscopic analysis; format: nucleic-acid assay; conditions: Bos taurus
[39] = target: T1, DNA topoisomerase 2-alpha; assay: Inhibition of recombinant human topoisomerase 2 assessed as decrease in relaxation of supercoiled pBlue-Script KS(+) plasmid DNA at 200 uM incubated for 30 mins by ethidium bromide staining based gel electrophoresis method
[40] = tested on: HCT-116; assay: Induction of apoptosis in human HCT-116 cells assessed as nuclear fragmentation at 2 uM incubated for 48 hrs by acridine orange/propidium iodide double staining based fluorescence microscopy analysis; format: functional, cell-based
[41] = tested on: HCT-116; assay: Induction of apoptosis in human HCT-116 cells assessed as reduction in PARP protein levels at 3 uM incubated for 48 hrs by Western blot analysis; format: functional, cell-based
[42] = tested on: HeLa; assay: Induction of apoptosis in human HeLa cells assessed as increase in cleaved PARP levels at 1 uM by Western blot analysis; format: functional, cell-based; conditions: time 6-24 hrs, TDE = time-dependent effect
[43] = target: T1, DNA topoisomerase 2-alpha; assay: Inhibition of recombinant human topoisomerase 2 assessed as decrease in relaxation of supercoiled pBlue-Script KS(+) plasmid DNA at < 100 uM incubated for 30 mins by ethidium bromide staining based gel electrophoresis method; conditions: dose microM <100, time 30.0 min
[44] = tested on: Calf thymus DNA; assay: Binding affinity to calf thymus DNA assessed as hyperchromic shift measured at 432 nm at 3*10^-5 mol/L by double beam UV-Vis spectroscopic analysis; format: nucleic-acid assay; conditions: Bos taurus
[45] = tested on: HCT-116; assay: Induction of cell cycle arrest in human HCT-116 cells assessed as accumulation of cells at sub-G1 phase at 2 uM incubated for 48 hrs by propidium iodide staining based flow cytometry analysis; format: functional
[46] = tested on: NCI-H460; assay: Induction of apoptosis in human NCI-H460 cells assessed as chromatin condensation at 2 uM incubated for 48 hrs by acridine orange/propidium iodide double staining based fluorescence microscopy analysis; format: functional, cell-based
[47] = tested on: NCI-H460; assay: Induction of apoptosis in human NCI-H460 cells assessed as increase in cleaved PARP protein levels at 3 uM incubated for 48 hrs by Western blot analysis; format: functional, cell-based
[48] = tested on: HCT-116; assay: Induction of apoptosis in human HCT-116 cells assessed as chromatin condensation at 2 uM incubated for 48 hrs by acridine orange/propidium iodide double staining based fluorescence microscopy analysis; format: functional, cell-based

Row | GI50 [3] | GI50 [4] | GI50 [5] | GI50 [7] | GI50 [8] | GI50 [9] | GI50 [10] | GI50 [11] | logD [13] | logP [14] | Activity [32] | Compound | Activity [1] | GI50 [2] | Activity [15] | other results
1 | 0.26 µM | 0.65 µM | 0.47 µM | > 4 µM | 0.16 µM | 2.55 µM | 2.25 µM | > 4 µM | -2.11 | -1.81 | – | O=C1c2[nH]c3ccccc3c2C(=O)c2cnc3ccccc3c21 [CALOTHRIXIN B] | Active | 3.5 µM | Active | Activity [6]: inactive; Activity [12]: Active; Activity [16]: Tde
2 | 0.02 µM | 6 µM | 0.02 µM | > 4 µM | 0.95 µM | – | > 4 µM | 0.001 µM | 1.61 | 1.91 | – | Fc1ccc2c(c1)ncc1cc3c(cc12)[nH]c1ccccc13 | Active | > 4 µM | Active | Activity [17]: Active; inhibition [18]: inactive; Activity [19]: Active; Activity [20]: Active; Activity [21]: 14 nm; Activity [22]: 46%; Activity [23]: Dose-dependent effect; inhibition [24]: Active; Activity [25]: 41%; GI50 [26]: 0.0052 µM; GI50 [27]: > 4 µM; Activity [28]: Dose-dependent effect; Activity [29]: Active; Activity [30]: Dose-dependent effect; Activity [31]: Active
3 | 2.75 µM | 1.75 µM | 1.1 µM | – | 1 µM | – | 1.35 µM | 1.5 µM | – | – | 40% | CN(C)CCCNc1nc2ccccc2c2cc3[nH]c4ccccc4c3cc12 | – | 1.15 µM | – | Activity [33]: 15 nm
4 | 0.03 µM | 0.11 µM | 0.08 µM | 0.07 µM | 0.04 µM | 0.08 µM | 0.08 µM | 0.22 µM | 1.02 | 1.32 | 13% | O=C1c2c[n+]([O-])c3ccccc3c2C(=O)c2[nH]c3ccccc3c21 [CALOTHRIXIN A] | – | 0.05 µM | – | Activity [34]: Active; Activity [35]: Active; Activity [36]: 12%; Activity [37]: Active; Activity [38]: 10 nm; inhibition [39]: Active; Activity [40]: Active; Activity [41]: Active; Activity [42]: Tde; inhibition [43]: inactive; Activity [44]: 13%; Activity [45]: Active; Activity [46]: Active; Activity [47]: Active; Activity [48]: Active

— ChEMBL document CHEMBL4706477, “Synthesis and Biological Evaluation of Calothrixins B and their Deoxygenated Analogues” (J Med Chem, 2018)
